Test results as given in US20220281848A1, “PYRAZOLE-SUBSTITUTED PYRROLIDINONES AS HERBICIDES” (FMC Corporation, priority 2019, published 2022).

Tested on: plants
Assay: Test D pre-emergence, other plants of Tables D1 and D3
Type: in vivo
Details: preemergent, 20 DAA
Summary of the method: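 Seeds treated with herbicide safener; sown in soil; glasshouse, 16 h light, 65% humidity. Sprayed day 1 (pre) or ~day 12 (post). Spray in 0.2% v/v adjuvant. Scored 0–100 damage: 20 DAA pre, 15 d post.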

CN1CC(c2cc(C(F)(F)F)n(C)n2)C(C(=O)Nc2ccccc2F)C1=O (racemic) [Compound 9]
100: damage to plant (100=total damage to plant; 0=no damage to plant), BRAPL (rate 250) | damage to plant (100=total damage to plant; 0=no damage to plant), BRAPL (rate 500) | damage to plant (100=total damage to plant; 0=no damage to plant), DIGSA (rate 130) | damage to plant (100=total damage to plant; 0=no damage to plant), DIGSA (rate 500)
20: damage to plant (100=total damage to plant; 0=no damage to plant), ECHCG (rate 30)
50: damage to plant (100=total damage to plant; 0=no damage to plant), SETFA (rate 130)
70: damage to plant (100=total damage to plant; 0=no damage to plant), SETFA (rate 250)
80: damage to plant (100=total damage to plant; 0=no damage to plant), DIGSA (rate 30) | damage to plant (100=total damage to plant; 0=no damage to plant), DIGSA (rate 60) | damage to plant (100=total damage to plant; 0=no damage to plant), ECHCG (rate 60)
30: damage to plant (100=total damage to plant; 0=no damage to plant), BRAPL (rate 60)
90: damage to plant (100=total damage to plant; 0=no damage to plant), BRAPL (rate 130) | damage to plant (100=total damage to plant; 0=no damage to plant), DIGSA (rate 250) | damage to plant (100=total damage to plant; 0=no damage to plant), ECHCG (rate 130) | damage to plant (100=total damage to plant; 0=no damage to plant), ECHCG (rate 250) | damage to plant (100=total damage to plant; 0=no damage to plant), ECHCG (rate 500) | damage to plant (100=total damage to plant; 0=no damage to plant), SETFA (rate 500)
0: damage to plant (100=total damage to plant; 0=no damage to plant), ABUTH (rate 15) | damage to plant (100=total damage to plant; 0=no damage to plant), ABUTH (rate 30) | damage to plant (100=total damage to plant; 0=no damage to plant), ABUTH (rate 60) | damage to plant (100=total damage to plant; 0=no damage to plant), ABUTH (rate 130) | damage to plant (100=total damage to plant; 0=no damage to plant), AMARE (rate 15) | damage to plant (100=total damage to plant; 0=no damage to plant), AMARE (rate 30) | damage to plant (100=total damage to plant; 0=no damage to plant), AMARE (rate 500) | damage to plant (100=total damage to plant; 0=no damage to plant), BIDPI (rate 15) | damage to plant (100=total damage to plant; 0=no damage to plant), BIDPI (rate 30) | damage to plant (100=total damage to plant; 0=no damage to plant), BIDPI (rate 60) | damage to plant (100=total damage to plant; 0=no damage to plant), BIDPI (rate 130) | damage to plant (100=total damage to plant; 0=no damage to plant), BIDPI (rate 250) | damage to plant (100=total damage to plant; 0=no damage to plant), BIDPI (rate 500) | damage to plant (100=total damage to plant; 0=no damage to plant), BRAPL (rate 15) | damage to plant (100=total damage to plant; 0=no damage to plant), CYPES (rate 15) | damage to plant (100=total damage to plant; 0=no damage to plant), CYPES (rate 30) | damage to plant (100=total damage to plant; 0=no damage to plant), CYPES (rate 60) | damage to plant (100=total damage to plant; 0=no damage to plant), CYPES (rate 130) | damage to plant (100=total damage to plant; 0=no damage to plant), CYPES (rate 250) | damage to plant (100=total damage to plant; 0=no damage to plant), CYPES (rate 500) | damage to plant (100=total damage to plant; 0=no damage to plant), DIGSA (rate 15) | damage to plant (100=total damage to plant; 0=no damage to plant), ECHCG (rate 15) | damage to plant (100=total damage to plant; 0=no damage to plant), ELEIN (rate 15) | damage to plant (100=total damage to plant; 0=no damage to plant), ELEIN (rate 30) | damage to plant (100=total damage to plant; 0=no damage to plant), ELEIN (rate 60) | damage to plant (100=total damage to plant; 0=no damage to plant), ELEIN (rate 130) | damage to plant (100=total damage to plant; 0=no damage to plant), ELEIN (rate 250) | damage to plant (100=total damage to plant; 0=no damage to plant), ELEIN (rate 500) | damage to plant (100=total damage to plant; 0=no damage to plant), EPHHL (rate 15) | damage to plant (100=total damage to plant; 0=no damage to plant), EPHHL (rate 30) | damage to plant (100=total damage to plant; 0=no damage to plant), EPHHL (rate 60) | damage to plant (100=total damage to plant; 0=no damage to plant), EPHHL (rate 130) | damage to plant (100=total damage to plant; 0=no damage to plant), GLXMA (rate 15) | damage to plant (100=total damage to plant; 0=no damage to plant), GLXMA (rate 30) | damage to plant (100=total damage to plant; 0=no damage to plant), GLXMA (rate 60) | damage to plant (100=total damage to plant; 0=no damage to plant), GLXMA (rate 130) | damage to plant (100=total damage to plant; 0=no damage to plant), GLXMA (rate 250) | damage to plant (100=total damage to plant; 0=no damage to plant), GLXMA (rate 500) | damage to plant (100=total damage to plant; 0=no damage to plant), IPOHE (rate 15) | damage to plant (100=total damage to plant; 0=no damage to plant), IPOHE (rate 30) | damage to plant (100=total damage to plant; 0=no damage to plant), IPOHE (rate 60) | damage to plant (100=total damage to plant; 0=no damage to plant), IPOHE (rate 130) | damage to plant (100=total damage to plant; 0=no damage to plant), IPOHE (rate 250) | damage to plant (100=total damage to plant; 0=no damage to plant), IPOHE (rate 500) | damage to plant (100=total damage to plant; 0=no damage to plant), ORYSA (rate 15) | damage to plant (100=total damage to plant; 0=no damage to plant), ORYSA (rate 30) | damage to plant (100=total damage to plant; 0=no damage to plant), ORYSA (rate 60) | damage to plant (100=total damage to plant; 0=no damage to plant), ORYSA (rate 130) | damage to plant (100=total damage to plant; 0=no damage to plant), ORYSA (rate 250) | damage to plant (100=total damage to plant; 0=no damage to plant), ORYSA (rate 500) | damage to plant (100=total damage to plant; 0=no damage to plant), PANMI (rate 15) | damage to plant (100=total damage to plant; 0=no damage to plant), PANMI (rate 30) | damage to plant (100=total damage to plant; 0=no damage to plant), PANMI (rate 60) | damage to plant (100=total damage to plant; 0=no damage to plant), PANMI (rate 130) | damage to plant (100=total damage to plant; 0=no damage to plant), PANMI (rate 250) | damage to plant (100=total damage to plant; 0=no damage to plant), PANMI (rate 500) | damage to plant (100=total damage to plant; 0=no damage to plant), SETFA (rate 15) | damage to plant (100=total damage to plant; 0=no damage to plant), SETFA (rate 30) | damage to plant (100=total damage to plant; 0=no damage to plant), SETFA (rate 60) | damage to plant (100=total damage to plant; 0=no damage to plant), SIDSP (rate 15) | damage to plant (100=total damage to plant; 0=no damage to plant), SIDSP (rate 30) | damage to plant (100=total damage to plant; 0=no damage to plant), SIDSP (rate 60) | damage to plant (100=total damage to plant; 0=no damage to plant), SIDSP (rate 130) | damage to plant (100=total damage to plant; 0=no damage to plant), SIDSP (rate 250) | damage to plant (100=total damage to plant; 0=no damage to plant), SIDSP (rate 500) | damage to plant (100=total damage to plant; 0=no damage to plant), SORVU (rate 15) | damage to plant (100=total damage to plant; 0=no damage to plant), SORVU (rate 30) | damage to plant (100=total damage to plant; 0=no damage to plant), SORVU (rate 60) | damage to plant (100=total damage to plant; 0=no damage to plant), SORVU (rate 130) | damage to plant (100=total damage to plant; 0=no damage to plant), SORVU (rate 250)
10: damage to plant (100=total damage to plant; 0=no damage to plant), ABUTH (rate 250) | damage to plant (100=total damage to plant; 0=no damage to plant), ABUTH (rate 500) | damage to plant (100=total damage to plant; 0=no damage to plant), BRAPL (rate 30) | damage to plant (100=total damage to plant; 0=no damage to plant), EPHHL (rate 500)
